Measured values published in patent US10947210B2 (priority 2015, dated 2021).

biological target: HCV RNA-dependent RNA polymerase (NS5B) (Hepatitis C virus genotype 1b (isolate BK) (HCV), UniProt P26663); test: RNA-Dependent RNA HCV NS5B (polymerase) Assay and IC50 Determination; assay type: biochemical; settings: purified HCV NS5B polymerase, polyA:U16 substrate, 32P-UTP incorporation; read-out: IC50
Description: RNA-Dependent RNA HCV NS5B (polymerase) Assay and IC50 Determination.
The reaction mixtures consisted of 50 mM Hepes-KOH, pH 7.5, 5 mM MgCl2, 5 mM DTT, 2% glycerol, 0.01% Triton® X-100, 0.5 uM polyA:U16 substrate, purified HCV RNA-dependent RNA polymerase, 10 μM UTP, and ^32P-UTP (Perkin Elmer). The reaction mixtures incubated at 30° C. for 60 minutes, and then filtered through Zeta probe membrane (BioRad). The filter was washed with 5×SSC (75 mM sodium citrate, pH 7 and 750 mM NaCl), and the radiolabeled RNA products were quantitated by microbeta (Perkin Elmer). For IC50 determination, different concentrations of inhibitors were added to the polymerase reaction mixtures, and incubated at 37° C. for 60 minutes. IC50 values were determined using GraFit (Erithaus software).
Table 1 presents IC50 data obtained using the biochemical assay to test representative compounds. Data are presented as follows: “+++” means <0.1 μM; “++” means ≥0.1 μM but <1.0 μM; “+” means ≥1.0 μM.

Chain of HCV RNA-dependent RNA polymerase (NS5B) (P26663 2420-3010): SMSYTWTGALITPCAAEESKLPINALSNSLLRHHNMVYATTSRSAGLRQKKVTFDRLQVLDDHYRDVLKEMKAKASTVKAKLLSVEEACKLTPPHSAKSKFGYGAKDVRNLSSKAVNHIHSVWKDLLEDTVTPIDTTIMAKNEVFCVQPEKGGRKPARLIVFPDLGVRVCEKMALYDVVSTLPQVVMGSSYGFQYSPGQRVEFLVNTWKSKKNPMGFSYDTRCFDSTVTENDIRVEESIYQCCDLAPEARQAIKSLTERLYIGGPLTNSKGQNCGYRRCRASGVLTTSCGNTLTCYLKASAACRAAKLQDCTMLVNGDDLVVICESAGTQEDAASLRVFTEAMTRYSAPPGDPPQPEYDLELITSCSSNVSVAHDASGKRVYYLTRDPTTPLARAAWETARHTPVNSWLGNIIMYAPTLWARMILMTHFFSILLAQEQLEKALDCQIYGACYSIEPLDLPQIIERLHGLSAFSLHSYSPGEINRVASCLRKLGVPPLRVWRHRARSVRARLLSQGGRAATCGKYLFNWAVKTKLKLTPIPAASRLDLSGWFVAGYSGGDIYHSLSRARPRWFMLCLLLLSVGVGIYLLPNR

`CNC(=O)c1c(-c2ccc(F)cc2)oc2cc(N(CCOCCOCc3cccc(C(=O)OC)c3)S(C)(=O)=O)c(C3CC3)cc12` [Compound 06-6C, 3-[2-(2-{[5-Cyclopropyl-2-(4-fluoro-phenyl)-3-methylcarbamoyl-benzofuran-6-yl]-methanesulfonyl-amino}-ethoxy)-ethoxymethyl]-benzoic acid methyl ester] and `CNC(=O)c1c(-c2ccc(F)cc2)oc2cc(N(CCOCCOCCOCc3cccc(C(=O)OC)c3)S(C)(=O)=O)c(C3CC3)cc12` [Compound 06-6F, 3-{2-[2-(2-{[5-Cyclopropyl-2-(4-fluoro-phenyl)-3-methylcarbamoyl-benzofuran-6-yl]-methanesulfonyl-amino}-ethoxy)-ethoxy]-ethoxymethyl}-benzoic acid methyl ester] cannot be ordered by IC50: over 1000 nM for the first, over 1000 nM for the second.

`CNC(=O)c1c(-c2ccc(F)cc2)oc2cc(N(CCOCCOCCOCc3ccccc3C(=O)OC)S(C)(=O)=O)c(C3CC3)cc12` [Compound 06-6D, 2-{2-[2-(2-{[5-Cyclopropyl-2-(4-fluoro-phenyl)-3-methylcarbamoyl-benzofuran-6-yl]-methanesulfonyl-amino}-ethoxy)-ethoxy]-ethoxymethyl}-benzoic acid methyl ester] and `CNC(=O)c1c(-c2ccc(F)cc2)oc2cc(N(CCOCCOCCOCc3ccccc3C(=O)O)S(C)(=O)=O)c(C3CC3)cc12` [Compound 06-7D, 2-{2-[2-(2-{[5-Cyclopropyl-2-(4-fluoro-phenyl)-3-methylcarbamoyl-benzofuran-6-yl]-methanesulfonyl-amino}-ethoxy)-ethoxy]-ethoxymethyl}-benzoic Acid] fall in the same range of IC50: 100 to 1000 nM for the first, 100 to 1000 nM for the second.

`CNC(=O)c1c(-c2ccc(F)cc2)oc2cc(N(CCOCCOCCOCc3ccc(C(=O)OC)cc3)S(C)(=O)=O)c(C3CC3)cc12` [Compound 06-6E, 4-{2-[2-(2-{[5-Cyclopropyl-2-(4-fluoro-phenyl)-3-methylcarbamoyl-benzofuran-6-yl]-methanesulfonyl-amino}-ethoxy)-ethoxy]-ethoxymethyl}-benzoic acid methyl ester] and `CNC(=O)c1c(-c2ccc(F)cc2)oc2cc(N(CCOCCOCCOCc3ccc(C(=O)O)cc3)S(C)(=O)=O)c(C3CC3)cc12` [Compound 06-7E, 4-{2-[2-(2-{[5-Cyclopropyl-2-(4-fluoro-phenyl)-3-methylcarbamoyl-benzofuran-6-yl]-methanesulfonyl-amino}-ethoxy)-ethoxy]-ethoxymethyl}-benzoic Acid] fall in the same range of IC50: 100 to 1000 nM for the first, 100 to 1000 nM for the second.

Compared with `CNC(=O)c1c(-c2ccc(F)cc2)oc2cc(N(CCOCCOCCOCc3cccc(C(=O)O)c3)S(C)(=O)=O)c(C3CC3)cc12` [Compound 06-7F, 3-{2-[2-(2-{[5-Cyclopropyl-2-(4-fluoro-phenyl)-3-methylcarbamoyl-benzofuran-6-yl]-methanesulfonyl-amino}-ethoxy)-ethoxy]-ethoxymethyl}-benzoic Acid], `CCOC(=O)c1ccc(COCCOCCN(c2cc3oc(-c4ccc(F)cc4)c(C(=O)NC)c3cc2C2CC2)S(C)(=O)=O)cc1` [Compound 06-8B1, 4-[2-(2-{[5-Cyclopropyl-2-(4-fluoro-phenyl)-3-methylcarbamoyl-benzofuran-6-yl]-methanesulfonyl-amino}-ethoxy)-ethoxymethyl]-benzoic Acid Ethyl Ester] is higher in IC50: under 100 nM for the first, over 1000 nM for the second.

`CCCCOC(=O)c1ccc(COCCOCCN(c2cc3oc(-c4ccc(F)cc4)c(C(=O)NC)c3cc2C2CC2)S(C)(=O)=O)cc1` [Compound 06-8B3, 4-[2-(2-{[5-Cyclopropyl-2-(4-fluoro-phenyl)-3-methylcarbamoyl-benzofuran-6-yl]-methanesulfonyl-amino}-ethoxy)-ethoxymethyl]-benzoic Acid Butyl Ester] and `CCCCCOC(=O)c1ccc(COCCOCCN(c2cc3oc(-c4ccc(F)cc4)c(C(=O)NC)c3cc2C2CC2)S(C)(=O)=O)cc1` [Compound 06-8B4, 4-[2-(2-{[5-Cyclopropyl-2-(4-fluoro-phenyl)-3-methylcarbamoyl-benzofuran-6-yl]-methanesulfonyl-amino}-ethoxy)-ethoxymethyl]-benzoic Acid Pentyl Ester] fall in the same range of IC50: 100 to 1000 nM for the first, 100 to 1000 nM for the second.

`CNC(=O)c1c(-c2ccc(F)cc2)oc2cc(N(CCOCCOCc3ccc(C(=O)OCC(N)=O)cc3)S(C)(=O)=O)c(C3CC3)cc12` [Compound 06-8B5, 4-[2-(2-{[5-Cyclopropyl-2-(4-fluoro-phenyl)-3-methylcarbamoyl-benzofuran-6-yl]-methanesulfonyl-amino}-ethoxy)-ethoxymethyl]-benzoic Acid Carbamoylmethyl Ester] and `CCOC(=O)COC(=O)c1ccc(COCCOCCN(c2cc3oc(-c4ccc(F)cc4)c(C(=O)NC)c3cc2C2CC2)S(C)(=O)=O)cc1` [Compound 06-8B8, 4-[2-(2-{[5-Cyclopropyl-2-(4-fluoro-phenyl)-3-methylcarbamoyl-benzofuran-6-yl]-methanesulfonyl-amino}-ethoxy)-ethoxymethyl]-benzoic Acid Ethoxycarbonylmethyl Ester] fall in the same range of IC50: 100 to 1000 nM for the first, 100 to 1000 nM for the second.

`CNC(=O)c1c(-c2ccc(F)cc2)oc2cc(N(CCOCCOCc3ccc(C(=O)OCSC)cc3)S(C)(=O)=O)c(C3CC3)cc12` [Compound 06-8B6, 4-[2-(2-{[5-Cyclopropyl-2-(4-fluoro-phenyl)-3-methylcarbamoyl-benzofuran-6-yl]-methanesulfonyl-amino}-ethoxy)-ethoxymethyl]-benzoic Acid Methylsulfanylmethyl Ester] and `CNC(=O)c1c(-c2ccc(F)cc2)oc2cc(N(CCOCCOCc3ccc(C(=O)OCc4ccccc4)cc3)S(C)(=O)=O)c(C3CC3)cc12` [Compound 06-8B7, 4-[2-(2-{[5-Cyclopropyl-2-(4-fluoro-phenyl)-3-methylcarbamoyl-benzofuran-6-yl]-methanesulfonyl-amino}-ethoxy)-ethoxymethyl]-benzoic Acid Benzyl Ester] fall in the same range of IC50: 100 to 1000 nM for the first, 100 to 1000 nM for the second.

`CNC(=O)c1c(-c2ccc(F)cc2)oc2cc(N(CCNC(=O)CNC(=O)CCCC(=O)O)S(C)(=O)=O)c(C3CC3)cc12` [Compound 07-7, 4-{[(2-{[5-Cyclopropyl-2-(4-fluoro-phenyl)-3-methylcarbamoyl-benzofuran-6-yl]-methanesulfonyl-amino}-ethylcarbamoyl)-methyl]-carbamoyl}-butyric Acid] and `CNC(=O)c1c(-c2ccc(F)cc2)oc2cc(N(CC(=O)NCC(=O)NCCCCC(=O)O)S(C)(=O)=O)c(C3CC3)cc12` [Compound 10-4A, 5-[2-(2-{[5-Cyclopropyl-2-(4-fluoro-phenyl)-3-methylcarbamoyl-benzofuran-6-yl]-methanesulfonyl-amino}-acetylamino)-acetylamino]-pentanoic Acid] cannot be ordered by IC50: over 1000 nM for the first, over 1000 nM for the second.

`CNC(=O)c1c(-c2ccc(F)cc2)oc2cc(N(CCNC(=O)CNC(=O)c3cccc(CCCC(=O)O)c3)S(C)(=O)=O)c(C3CC3)cc12` [Compound 07-10, 4-(3-{[(2-{[5-Cyclopropyl-2-(4-fluoro-phenyl)-3-methylcarbamoyl-benzofuran-6-yl]-methanesulfonyl-amino}-ethylcarbamoyl)-methyl]-carbamoyl}-phenyl)-butyric Acid] and `CNC(=O)c1c(-c2ccc(F)cc2)oc2cc(N(CC(=O)NCC(=O)NCCCC(C)C(=O)O)S(C)(=O)=O)c(C3CC3)cc12` (stereo not shown) [Compound 10-4B, 5-[2-(2-{[5-Cyclopropyl-2-(4-fluoro-phenyl)-3-methylcarbamoyl-benzofuran-6-yl]-methanesulfonyl-amino}-acetylamino)-acetylamino]-2-methyl-pentanoic Acid] cannot be ordered by IC50: over 1000 nM for the first, over 1000 nM for the second.

`CNC(=O)c1c(-c2ccc(F)cc2)oc2cc(N(CC(=O)N(C)CC(=O)NCc3cccc(C(=O)C=C(O)C(=O)O)c3)S(C)(=O)=O)c(C3CC3)cc12` [Compound 09-14B, 4-[3-({2-[(2-{[5-Cyclopropyl-2-(4-fluoro-phenyl)-3-methylcarbamoyl-benzofuran-6-yl]-methanesulfonyl-amino}-acetyl)-methyl-amino]-acetylamino}-methyl)-phenyl]-2-hydroxy-4-oxo-but-2-enoic acid] and `CNC(=O)c1c(-c2ccc(F)cc2)oc2cc(N(CC(=O)NC3(C(=O)NCc4cccc(C(=O)C=C(O)C(=O)O)c4)CC3)S(C)(=O)=O)c(C3CC3)cc12` [Compound 09-14D, 4-[3-({[1-(2-{[5-Cyclopropyl-2-(4-fluoro-phenyl)-3-methylcarbamoyl-benzofuran-6-yl]-methanesulfonyl-amino}-acetylamino)-cyclopropanecarbonyl]-amino}-methyl)-phenyl]-2-hydroxy-4-oxo-but-2-enoic Acid] cannot be ordered by IC50: over 1000 nM for the first, over 1000 nM for the second.

`CNC(=O)c1c(-c2ccc(F)cc2)oc2cc(N(CC(=O)NCC(=O)NCCCCC(=O)OC)S(C)(=O)=O)c(C3CC3)cc12` [Compound 10-3A, 5-[2-(2-{[5-Cyclopropyl-2-(4-fluoro-phenyl)-3-methylcarbamoyl-benzofuran-6-yl]-methanesulfonyl-amino}-acetylamino)-acetylamino]-pentanoic Acid Methyl Ester] and `CNC(=O)c1c(-c2ccc(F)cc2)oc2cc(N(CC(=O)NCC(=O)NCCCC(C)C(=O)OC)S(C)(=O)=O)c(C3CC3)cc12` (stereo not shown) [Compound 10-3B, 5-[2-(2-{[5-Cyclopropyl-2-(4-fluoro-phenyl)-3-methylcarbamoyl-benzofuran-6-yl]-methanesulfonyl-amino}-acetylamino)-acetylamino]-2-methyl-pentanoic Acid Methyl Ester] cannot be ordered by IC50: over 1000 nM for the first, over 1000 nM for the second.
